These results are taken from patent US12173018B2, “Penicillin-binding protein inhibitors” (priority 2018, dated 2024).

The structures appear in SMILES notation. pEC50: −log10 of the molar value. In brackets after ≈: the same amount, converted by molar mass. Read-outs that look alike come from different tables or passages of the source.

One test addresses E. coli PBP1b (Escherichia coli (strain K12), UniProt P02919). Kind of test: Radioligand competition binding assay with 14C-labeled boronic acid probe, PBP1b. The text has this:
To determine the ability of boronic acid-based test PBP inhibitors to bind Penicillin Binding Proteins (PBPs), a radio-labelled boronic acid PBP inhibitor
[drawing 751] was used in competition binding assays to determine boronic acid PBP inhibitor binding to PBP1a or PBP1b from Escherichia coli. PBP1a and PBP1b were purified as described previously (Bertsche, U.; et al., J. Biol. Chem. 2005, 280 (45), 38096-38101; Born, P.; et al., J. Biol. Chem. 2006. 281 (37), 26985-26993). To establish assay conditions for competition binding, an enzyme titration/saturation binding experiment was performed. Saturation binding was performed in a buffer comprised of 20 mM Tris (pH 7.5), 500 mM NaCl and 0.1% (v/v) TritonX-100, with PBP1a/PBP1b at a final concentration of 0.1 μM and Compound A at final concentrations ranging from 0-100 μM. Mixtures were incubated for 60 minutes, then applied to Zeba Spin Desalting columns or plates (ThermoFisher Scientific) and centrifuged at 1000-1500×g for 2 minutes. The flow through, containing PBP bound with Compound A, was recovered and 100 μL mixed with 5 mL of UltimaGold liquid scintillation cocktail (Perkin Elmer), and the radioactivity counted using a Beckman Coulter LS 6500 Multipurpose scintillation counter. PBP binding of Compound A approached saturation at 20 μM of ^14C-labeled probe. The competition binding assay was validated using the beta-lactam ampicillin, with Compound A at a final concentration of 20 μM, PBP1a/PBP1b at a final concentration of 0.1 μM. PBP1a/PBP1b was incubated with ampicillin in a 96-well microplate for 60 minutes, then Compound A was added and the mixtures incubated for an additional 60 minutes. The mixtures were then applied to Zeba Spin desalting plates and centrifuged at 1000×g for 2 minutes. The flow through was recovered and 100 μl mixed with 5 ml of UltimaGold liquid scintillation cocktail and the radioactivity counted. […] Binding assays with boronic acid PBP inhibitors were performed in an identical fashion. The potency of boronic acid PBP inhibitors was reported as the EC50 value.

For the next test, the target named is E. coli PBP3 (Escherichia coli (strain K12), UniProt P0AD68). Nature of the test: E. coli PBP3 Bocillin-FL fluorescence polarization competition binding assay. The gist of the method:
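Steps: purified PBP (1.5 μM final) mixed with compound (0–1000 μM) in 50 mM Hepes pH 8.0, 300 mM NaCl, 5% glycerol; Bocillin-FL added to 0.1 μM; FP (ex 490, em 520 nm) followed for 60 min. Concentration reducing Bocillin-FL binding reported as EC50.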

The test system of a further test is N. gonorrhoeae WHO F. Kind of test: Liquid broth MIC, N. gonorrhoeae WHO F. The test is classed as cell-based. Conditions: Neisseria gonorrhoeae; N. gonorrhoeae WHO F, liquid broth; read-out: Minimum Inhibitory Concentration, N. gonorrhoeae WHO F. The procedure:
(§1) Additional antibacterial testing of the series was performed in wild-type reference strains of N. gonorrhoeae (ATCC 49226, FA1090, WHO F and FA19). Liquid broth-based assays were used for antibacterial testing of PBP inhibitors in Neisseria gonorrhoeae. Briefly, cryo-preserved bacterial cultures of clinical strains are streaked for isolation on GC Base agar (BD #228950 at 36 g/L autoclaved at 121° C. for 20 minutes to sterilize) with 1% Kellogg's supplement (40 g glucose, 0.5 g glutamine, 0.05 g ferric nitrate and 2 mg cocarboxylase per 100 mL deionized water filter sterilized through 0.2 μm syringe filters). Following incubation at 36° C. and 5% CO2 to allow growth of colonies, strains are aseptically sub-cultured from original agar plate onto 3 agar plates per strain 24 hours before inoculum preparation. 2-fold serial dilutions of test compounds are conducted in a 96 well plate with a final volume of 150 μL per well at 4/3-fold the final desired concentration. For preparation of assay inoculum, a direct suspension is prepared by aseptically swabbing all colonies from sub-cultured agar plates into culture tubes containing 2 mL of fresh GC broth with […]. After the dilution plates are set up, direct suspensions are then diluted in a cuvette containing GC broth (15 g proteose peptone 43, 1 g corn starch, 4 g dipotassium phosphate, 1 g monopotassium phosphate and 5 g sodium chloride per liter of deionized water are mixed on a stir plate for 20 minutes, pH adjusted to 7.2+/−0.2 pH units with 1 N HCl, centrifuged at 10,000×g for 20 minutes to pellet undissolved corn starch and then autoclaved at 121° C. for 20 minutes to sterilize) and the optical density is measured at 600 nm. Inocula are diluted such that 50 μL of this culture in […] results in a starting bacterial concentration of 5×10^5 CFU/mL when added to the dilution plates. The plates are incubated 40-42 hours at 36° C. and 5% CO2. The MIC is read visually as the lowest concentration well with no bacterial growth.

Another test deals with N. gonorrhoeae FA1090. Kind of test: Liquid broth MIC, N. gonorrhoeae FA1090. The conditions noted are these: Neisseria gonorrhoeae; N. gonorrhoeae FA1090, liquid broth; read-out: Minimum Inhibitory Concentration, N. gonorrhoeae FA1090. The test is classed as cell-based. The procedure:
as §1

Test [1] concerns engineered strain of Escherichia coli harboring CTX-M15. Kind of test: microbe, parasite or virus in culture. The conditions noted are these: Escherichia coli, read-out: Microbiological Activity (MIC in mg/L), E. coli DH5α/pLBII-CTX-M15, engineered strain producing CTX-M15. The test is classed as cell-based. The procedure:
Briefly, cryo-preserved bacterial cultures of challenge strains are streaked for isolation on appropriate agar medium, in this case Mueller Hinton II agar. Following incubation to allow growth of the colonies, plates are sealed with parafilm and stored refrigerated for up to two weeks. For preparation of assay inoculum and to ensure low variability, at least 5 colonies are picked from the agar plates with an inoculating loop and aseptically transferred to a culture tube containing 3 mL of Mueller-Hinton Broth (supplemented with divalent cations to required levels based on Manufacturers' certification). The broth culture is grown for 3-5 hours at 37° C. with shaking at 200 rpm. Meanwhile, 2-fold serial dilutions of test compounds are conducted in a 96 well plate with a final volume of 75 μL per well at 2-fold the final desired concentration. After the dilution plates are set up the growing cultures are then diluted in a cuvette containing MH II broth and the optical density is measured at 600 nm. The Inoculum is diluted such that 75 μL of this culture in Mueller-Hinton Broth results in a starting bacterial concentration of 5×10^5 CFU/mL when added to the dilution plates. The plates are incubated for 16-20 hours at 37° C. The MIC values are read visually as the lowest concentration well with no bacterial growth.
To determine if test compounds were affected by CTX-M15, the most abundant extended spectrum […] in clinical settings worldwide, the inhibition of the growth of an engineered strain of Escherichia coli harboring CTX-M15 was tested. This strain was constructed by cloning the gene encoding CTX-M15 into the NdeI and BamHI restriction endonuclease sites of plasmid pLBII, placing the gene(s) under the control of the Lac promoter. The constructed expression plasmid for CTX-M15 was used to transform competent E. coli DH5α cells to make the engineered strain, including an empty pLBII vector control strain. The classic cell based broth microdilution MIC assay was employed as described above with the addition of control antibiotics, known to be degraded by β-lactamases (Ceftazidime, piperacillin and piperacillin+tazobactam).

In test [2] the test system is N. gonorrhoeae ATCC 49226. Nature of the test: Liquid broth MIC, N. gonorrhoeae ATCC 49226. The test is classed as cell-based. Conditions: Neisseria gonorrhoeae, ATCC49226; N. gonorrhoeae ATCC 49226, liquid broth; read-out: Minimum Inhibitory Concentration, N. gonorrhoeae ATCC 49226. The procedure: as §1
The test system of another test is N. gonorrhoeae FA19. Kind of test: Liquid broth MIC, N. gonorrhoeae FA19. The test is classed as cell-based. The conditions noted are these: Neisseria gonorrhoeae; N. gonorrhoeae FA19, liquid broth; read-out: Minimum Inhibitory Concentration, N. gonorrhoeae FA19. The method, then: as §1
Where [3] appears, read: fluorescence polarization competition binding with Bocillin-FL, read-out: E. coli K12 PBP3 Potency.

E. coli PBP3, sequence (P0AD68 whole entry): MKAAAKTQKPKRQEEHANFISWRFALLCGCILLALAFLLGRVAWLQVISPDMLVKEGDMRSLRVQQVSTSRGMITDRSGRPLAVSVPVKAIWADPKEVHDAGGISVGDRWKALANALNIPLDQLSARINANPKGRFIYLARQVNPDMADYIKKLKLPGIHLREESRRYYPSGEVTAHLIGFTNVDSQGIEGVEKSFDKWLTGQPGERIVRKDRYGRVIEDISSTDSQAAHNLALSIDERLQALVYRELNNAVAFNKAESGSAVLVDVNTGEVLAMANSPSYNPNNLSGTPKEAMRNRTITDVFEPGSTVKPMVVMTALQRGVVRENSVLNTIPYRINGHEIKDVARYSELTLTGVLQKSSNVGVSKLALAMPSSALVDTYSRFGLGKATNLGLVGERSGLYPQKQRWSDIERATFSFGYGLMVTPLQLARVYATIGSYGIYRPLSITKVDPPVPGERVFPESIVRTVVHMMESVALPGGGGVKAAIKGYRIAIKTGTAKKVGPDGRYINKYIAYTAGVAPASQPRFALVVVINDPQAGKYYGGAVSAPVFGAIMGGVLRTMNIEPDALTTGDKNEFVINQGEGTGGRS
E. coli PBP1b, sequence (P02919 whole entry): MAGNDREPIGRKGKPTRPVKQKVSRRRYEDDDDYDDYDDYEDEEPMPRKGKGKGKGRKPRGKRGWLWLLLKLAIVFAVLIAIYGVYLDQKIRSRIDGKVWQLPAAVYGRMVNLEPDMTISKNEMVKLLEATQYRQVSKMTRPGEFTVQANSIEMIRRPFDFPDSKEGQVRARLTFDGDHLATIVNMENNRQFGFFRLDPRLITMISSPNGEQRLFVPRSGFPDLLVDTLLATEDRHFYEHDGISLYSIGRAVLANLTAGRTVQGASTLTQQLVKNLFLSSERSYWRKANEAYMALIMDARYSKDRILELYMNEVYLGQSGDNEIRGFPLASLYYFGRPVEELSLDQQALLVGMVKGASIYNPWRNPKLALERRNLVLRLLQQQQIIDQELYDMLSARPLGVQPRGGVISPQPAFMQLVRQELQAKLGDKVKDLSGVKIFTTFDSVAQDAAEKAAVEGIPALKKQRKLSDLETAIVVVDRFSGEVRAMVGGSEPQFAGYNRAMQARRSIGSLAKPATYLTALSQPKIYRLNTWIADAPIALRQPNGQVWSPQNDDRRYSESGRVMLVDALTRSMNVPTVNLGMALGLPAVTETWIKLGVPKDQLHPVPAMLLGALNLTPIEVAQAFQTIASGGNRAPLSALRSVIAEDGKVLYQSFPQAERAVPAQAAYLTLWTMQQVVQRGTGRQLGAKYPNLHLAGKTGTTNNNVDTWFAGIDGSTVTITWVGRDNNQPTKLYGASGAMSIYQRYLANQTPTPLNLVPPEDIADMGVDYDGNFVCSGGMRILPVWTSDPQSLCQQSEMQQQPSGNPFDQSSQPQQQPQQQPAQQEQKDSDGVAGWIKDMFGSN

Consider `CCN1CCN(C(=O)NC(CC(=O)N[C@H]2Cc3cccc(C(=O)O)c3OB2O)c2cc(O)c(O)c(Cl)c2)C(=O)C1=O` (stereo partly drawn) [Example 43, (3R)-3-(3-(3-chloro-4,5-dihydroxyphenyl)-3-(4-ethyl-2,3-dioxopiperazine-1-carboxamido)propanamido)-2-hydroxy-3,4-dihydro-2H-benzo[e][1,2]oxaborinine-8-carboxylic acid], for which the pEC50 at E. coli PBP1b is 4.00 to 5.00; at E. coli PBP3, 3.30 to 4.52.

On to `CCN1CCN(C(=O)NC(C(=O)N[C@H]2Cc3cccc(C(=O)O)c3OB2O)C(O)c2ccc(O)c(O)c2Cl)C(=O)C1=O` (stereo partly drawn) [Example 47, (3R)-3-(3-(2-chloro-3,4-dihydroxyphenyl)-2-(4-ethyl-2,3-dioxopiperazine-1-carboxamido)-3-hydroxypropanamido)-2-hydroxy-3,4-dihydro-2H-benzo[e][1,2]oxaborinine-8-carboxylic acid], for which the pEC50 was 4.00 to 5.00 on E. coli PBP1b and less than 3.30 on E. coli PBP3 (setting [3]).

Regarding `CCN1CCN(C(=O)NC(C(=O)N[C@H]2Cc3cccc(C(=O)O)c3OB2O)C(O)c2cccc(O)c2O)C(=O)C1=O` (stereo partly drawn) [Example 48, (3R)-3-(3-(2,3-dihydroxyphenyl)-2-(4-ethyl-2,3-dioxopiperazine-1-carboxamido)-3-hydroxypropanamido)-2-hydroxy-3,4-dihydro-2H-benzo[e][1,2]oxaborinine-8-carboxylic acid], the pEC50 at E. coli PBP1b is more than 5.00; on E. coli PBP3 (setting [3]), less than 3.30.

In the case of `O=C(O)c1cccc2c1OB(O)[C@@H](NC(=O)C(NC(=O)N1CCNC1=O)c1ccc(O)c(O)c1Cl)C2` (stereo partly drawn) [Example 52, (3R)-3-(2-(2-chloro-3,4-dihydroxyphenyl)-2-(2-oxoimidazolidine-1-carboxamido)acetamido)-2-hydroxy-3,4-dihydro-2H-benzo[e][1,2]oxaborinine-8-carboxylic acid], the MIC in the test on N. gonorrhoeae WHO F is less than 0.125 µg/mL; with N. gonorrhoeae FA1090 it was less than 0.125 µg/mL; in test [1], 128 to 256 mg/L (≈ 247 to 494 µM); in test [2], 0.25 to 0.5 µg/mL (≈ 0.482 to 0.964 µM); with N. gonorrhoeae FA19, more than 64 µg/mL.

On E. coli PBP1b, `CCN1CCN(C(=O)NC(C(=O)N[C@H]2Cc3cccc(C(=O)O)c3OB2O)c2ccccn2)C(=O)C1=O` (stereo partly drawn) [Example 56, (3R)-3-(2-(4-ethyl-2,3-dioxopiperazine-1-carboxamido)-2-(pyridin-2-yl)acetamido)-2-hydroxy-3,4-dihydro-2H-benzo[e][1,2]oxaborinine-8-carboxylic acid] had a pEC50 of less than 4.00.

`CCN1CCN(C(=O)NC(C(=O)N[C@H]2Cc3cccc(C(=O)O)c3OB2O)c2ccc(-c3nnn[nH]3)cc2)C(=O)C1=O` (some centres unmarked) [Example 93]: the MIC with N. gonorrhoeae WHO F was less than 0.125 µg/mL; in the test on N. gonorrhoeae FA1090 it was 0.25 to 0.5 µg/mL (≈ 0.434 to 0.868 µM); in test [1], 32 to 64 mg/L (≈ 55.5 to 111 µM); in test [2], 4 to 8 µg/mL (≈ 6.94 to 13.9 µM); in the test on N. gonorrhoeae FA19, 4 to 8 µg/mL (≈ 6.94 to 13.9 µM). For the same compound, the pEC50 at E. coli PBP3 (setting [3]) is more than 4.52.

Turning to `CCN1CCN(C(=O)NC(C(=O)N[C@H]2Cc3cccc(C(=O)O)c3OB2O)C2CCS(=O)(=O)C2)C(=O)C1=O` (stereo partly drawn) [Example 123, (3R)-3-(2-(1,1-dioxidotetrahydrothiophen-3-yl)-2-(4-ethyl-2,3-dioxopiperazine-1-carboxamido)acetamido)-2-hydroxy-3,4-dihydro-2H-benzo[e][1,2]oxaborinine-8-carboxylic acid], the pEC50 was less than 4.00 on E. coli PBP1b and less than 3.30 at E. coli PBP3 (setting [3]).

For `CCN1CCN(C(=O)NC(C(=O)N[C@H]2Cc3cccc(C(=O)O)c3OB2O)c2ccc(C)cn2)C(=O)C1=O` (stereo partly drawn) [Example 127, (3R)-3-(2-(4-ethyl-2,3-dioxopiperazine-1-carboxamido)-2-(5-methylpyridin-2-yl)acetamido)-2-hydroxy-3,4-dihydro-2H-benzo[e][1,2]oxaborinine-8-carboxylic acid], the pEC50 on E. coli PBP1b is less than 4.00; at E. coli PBP3 (setting [3]), less than 3.30.

`CCN1CCN(C(=O)NC(C(=O)N[C@H]2Cc3cccc(C(=O)O)c3OB2O)C(Cl)CCCO)C(=O)C1=O` (stereo partly drawn) [Example 130, (3R)-3-(3-chloro-2-(4-ethyl-2,3-dioxopiperazine-1-carboxamido)-6-hydroxyhexanamido)-2-hydroxy-3,4-dihydro-2H-benzo[e][1,2]oxaborinine-8-carboxylic acid]: at E. coli PBP1b (read-out: E. coli K12 PBP1b EC50, competition binding with 14C-labeled boronic acid probe), the pEC50 was less than 4.00.
